Data taken from US9340521B2, “Method for dual inhibition of SGLT1 and SGLT2 using diphenylmethane derivatives” (GREEN CROSS CORPORATION, priority 2013, dated 2016).

How the values were obtained:
Human SGLT2 (hSGLT2) = Human SGLT2 (hSGLT2) (Homo sapiens (Human), UniProt P31639); assay: Inhibitory effects on human SGLT2 activities (14C-AMG uptake, sodium-dependent glucose transport assay); format: cell-based; conditions: hSGLT2-expressing CHO cells, 37° C. for 2 h, single determinations
Source text: Test 1: Cloning and Cell Line Construction for Human SGLT2
Human SGLT2 (hSGLT2) gene was amplified by PCR from cDNA-Human Adult Normal Tissue Kidney (Invitrogen). The hSGLT2 sequence was cloned into pcDNA3.1(+) for mammalian expression and stably transfected into chinese hamster ovary (CHO) cells. SGLT2-expressing clones were selected based on resistance to G418 antibiotic (Geneticin) and activity in the ^14C-α-methyl-D-glucopyranoside (^14C-AMG) uptake assay.
Test 2: Inhibitory Effects on Human SGLT2 Activities
(§1) For sodium-dependent glucose transport assay, cells expressing hSGLT2 were seeded into a 96-well culture plate at a density of 5×10^4 cells/well in RPMI medium 1640 containing 10% fetal bovine serum. The cells were used 1 day after plating. They were incubated in pretreatment buffer (10 mM HEPES, 5 mM Tris, 140 mM choline chloride, 2 mM KCl, 1 mM CaCl2, and 1 mM MgCl2, pH 7.4) at 37° C. for 10 min. They were then incubated in uptake buffer (10 mM HEPES, 5 mM Tris, 140 mM NaCl, 2 mM KCl, 1 mM CaCl2, 1 mM MgCl2, and 1 mM ^14C-nonlabeled AMG pH 7.4) containing ^14C-labeled AMG (8 μM) and the inventive compound or dimethyl sulfoxide (DMSO) vehicle at 37° C. for 2 h. Cells were washed twice with washing buffer (pretreatment buffer containing 10 mM AMG at room temperature) and then the radioactivity was measured using a liquid scintillation counter. IC50 was determined by nonlinear regression analysis using GraphPad PRISM [Katsuno, K. et al. J. Pharmacol. Exp. Ther. 2007, 320, 323-330; Han, S. et al. Diabetes, 2008, 57, 1723-1729].

Human SGLT1 (hSGLT1) = Human SGLT1 (hSGLT1) (Homo sapiens (Human), UniProt P13866); assay: Inhibitory effects on human SGLT1 activities (14C-AMG uptake, sodium-dependent glucose transport assay); format: cell-based; conditions: 37° C. for 2 h, single determinations
Human SGLT1 (hSGLT1), sequence (P13866 whole entry): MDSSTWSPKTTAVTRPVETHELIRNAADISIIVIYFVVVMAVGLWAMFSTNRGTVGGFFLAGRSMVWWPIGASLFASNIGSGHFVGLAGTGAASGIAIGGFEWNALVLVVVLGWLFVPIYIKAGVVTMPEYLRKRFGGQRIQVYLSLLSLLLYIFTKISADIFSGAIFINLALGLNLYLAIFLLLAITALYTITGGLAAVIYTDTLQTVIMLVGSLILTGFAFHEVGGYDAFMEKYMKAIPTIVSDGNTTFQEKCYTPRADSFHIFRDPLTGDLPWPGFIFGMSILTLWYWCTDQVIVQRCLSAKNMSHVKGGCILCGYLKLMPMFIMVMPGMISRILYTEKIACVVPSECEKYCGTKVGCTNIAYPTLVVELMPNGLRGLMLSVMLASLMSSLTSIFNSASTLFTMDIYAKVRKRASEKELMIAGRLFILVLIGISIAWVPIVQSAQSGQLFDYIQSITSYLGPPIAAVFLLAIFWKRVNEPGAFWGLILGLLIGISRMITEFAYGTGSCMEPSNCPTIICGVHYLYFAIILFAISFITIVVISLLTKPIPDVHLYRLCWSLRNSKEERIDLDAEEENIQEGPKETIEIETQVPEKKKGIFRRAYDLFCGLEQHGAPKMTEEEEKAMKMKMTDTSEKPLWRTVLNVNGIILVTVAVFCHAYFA
Method: Test 3: Inhibitory Effects on Human SGLT1 Activities
as §1, with “^14C-labeled” for “^14C-labeled AMG”, “inhibitor” for “the inventive compound”, “PRISM.” for “PRISM [Katsuno, K. et al. J. Pharmacol. Exp. Ther. 2007, 320, 323-330; Han, S. et al. Diabetes, 2008, 57, 1723-1729].”

Human SGLT2 (hSGLT2), sequence (P31639 whole entry): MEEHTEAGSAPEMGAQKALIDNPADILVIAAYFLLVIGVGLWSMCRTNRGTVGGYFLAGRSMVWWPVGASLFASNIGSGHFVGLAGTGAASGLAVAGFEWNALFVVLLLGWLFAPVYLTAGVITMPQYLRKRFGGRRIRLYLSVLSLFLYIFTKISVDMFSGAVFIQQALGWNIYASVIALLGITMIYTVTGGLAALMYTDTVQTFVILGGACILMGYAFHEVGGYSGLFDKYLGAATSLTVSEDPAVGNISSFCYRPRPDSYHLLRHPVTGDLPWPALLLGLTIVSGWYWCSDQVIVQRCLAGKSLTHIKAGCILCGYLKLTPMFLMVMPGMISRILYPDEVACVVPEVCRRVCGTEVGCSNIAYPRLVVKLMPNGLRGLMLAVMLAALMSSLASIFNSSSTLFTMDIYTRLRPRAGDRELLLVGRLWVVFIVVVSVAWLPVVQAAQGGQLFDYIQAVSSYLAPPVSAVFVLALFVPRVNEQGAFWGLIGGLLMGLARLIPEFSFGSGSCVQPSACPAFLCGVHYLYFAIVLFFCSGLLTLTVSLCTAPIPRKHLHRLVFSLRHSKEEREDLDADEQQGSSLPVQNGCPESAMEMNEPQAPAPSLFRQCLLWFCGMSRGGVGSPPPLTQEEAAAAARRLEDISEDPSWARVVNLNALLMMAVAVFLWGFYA

Structure (SMILES) | IC50 (Human SGLT2 (hSGLT2)) [nM] | IC50 (Human SGLT1 (hSGLT1)) [nM]
CCOc1ccc(Cc2cc([C@@H]3O[C@H](CO)[C@@H](O)[C@H](O)[C@H]3O)c3c(c2Br)CCC3)cc1 [Compound E002, (2S,3R,4R,5S,6R)-2-(7-Bromo-6-(4-ethoxybenzyl)-2,3-dihydro-1H-inden-4-yl)-6-(hydroxymethyl)tetrahydro-2H-pyran-3,4,5-triol] | 0.75 | 62.7
CCc1ccc(Cc2cc([C@@H]3O[C@H](CO)[C@@H](O)[C@H](O)[C@H]3O)c3c(c2C)OCO3)cc1 [Compound E064, (2S,3R,4R,5S,6R)-2-(6-(4-Ethylbenzyl)-7-methylbenzo[d][1,3]dioxol-4-yl)-6-(hydroxymethyl)tetrahydro-2H-pyran-3,4,5-triol] | 1.1 | 38.3
COc1ccc(Cc2cc([C@@H]3O[C@H](SC)[C@@H](O)[C@H](O)[C@H]3O)c3c(c2Cl)CCCO3)cc1 [Compound E029, (2S,3R,4R,5S,6R)-2-(5-Chloro-6-(4-methoxybenzyl)chroman-8-yl)-6-(methylthio)tetrahydro-2H-pyran-3,4,5-triol] | 0.47 | 21.1
OC[C@H]1O[C@@H](c2cc(Cc3ccc(C4CC4)cc3)c(Cl)c3c2OCCC3)[C@H](O)[C@@H](O)[C@@H]1O [Compound E018, (2S,3R,4R,5S,6R)-2-(5-Chloro-6-(4-cyclopropylbenzyl)chroman-8-yl)-6-(hydroxymethyl)tetrahydro-2H-pyran-3,4,5-triol] | 0.85 | 26.6
OC[C@H]1O[C@@H](c2cc(Cc3ccc(C4CC4)cc3)c(Cl)c3c2OCO3)[C@H](O)[C@@H](O)[C@@H]1O [Compound E024, (2S,3R,4R,5S,6R)-2-(7-Chloro-6-(4-cyclopropylbenzyl)benzo[d][1,3]dioxol-4-yl)-6-(hydroxymethyl)tetrahydro-2H-pyran-3,4,5-triol] | 0.37 | 53

Further molecules by falling IC50 (Human SGLT2 (hSGLT2)), results first:

IC50 (Human SGLT2 (hSGLT2)) [nM] | IC50 (Human SGLT1 (hSGLT1)) [nM] | Structure (SMILES)
8 | 91 | Cc1ccc(Cc2cc3c(c([C@@H]4O[C@H](CO)[C@@H](O)[C@H](O)[C@H]4O)c2)CCC3)cc1 [Compound E041, (2R,3S,4R,5R,6S)-2-(Hydroxymethyl)-6-(6-(4-methylbenzyl)-2,3-dihydro-1H-inden-4-yl)tetrahydro-2H-pyran-3,4,5-triol]
1.7 | 34.4 | COc1ccc(Cc2cc([C@@H]3O[C@H](CO)[C@@H](O)[C@H](O)[C@H]3O)c3c(c2Cl)CCO3)cc1 [Compound E012, (2S,3R,4R,5S,6R)-2-(4-Chloro-5-(4-methoxybenzyl)-2,3-dihydrobenzofuran-7-yl)-6-(hydroxymethyl)tetrahydro-2H-pyran-3,4,5-triol]
1.2 | 89.4 | COc1ccc(Cc2cc([C@@H]3O[C@H](CO)[C@@H](O)[C@H](O)[C@H]3O)c3c(c2Cl)OCO3)cc1 [Compound E025, (2S,3R,4R,5S,6R)-2-(7-Chloro-6-(4-methoxybenzyl)benzo[d][1,3]dioxol-4-yl)-6-(hydroxymethyl)tetrahydro-2H-pyran-3,4,5-triol]
0.88 | 50 | OC[C@H]1O[C@@H](c2cc(Cc3ccc(C4CC4)cc3)c(Cl)c3c2CCCO3)[C@H](O)[C@@H](O)[C@@H]1O [Compound E022, (2S,3R,4R,5S,6R)-2-(8-Chloro-7-(4-cyclopropylbenzyl)chroman-5-yl)-6-(hydroxymethyl)tetrahydro-2H-pyran-3,4,5-triol]
0.83 | 105 | CCOc1ccc(Cc2cc([C@@H]3O[C@H](CO)[C@@H](O)[C@H](O)[C@H]3O)c3c(c2Cl)CCO3)cc1 [Compound E013, (2S,3R,4R,5S,6R)-2-(4-Chloro-5-(4-ethoxybenzyl)-2,3-dihydrobenzofuran-7-yl)-6-(hydroxymethyl)tetrahydro-2H-pyran-3,4,5-triol]
0.59 | 10.4 | CCc1ccc(Cc2cc([C@@H]3O[C@H](CO)[C@@H](O)[C@H](O)[C@H]3O)c3c(c2C)CCCC3)cc1 [Compound E044, (2S,3R,4R,5S,6R)-2-(3-(4-Ethylbenzyl)-4-methyl-5,6,7,8-tetrahydronaphthalen-1-yl)-6-(hydroxymethyl)tetrahydro-2H-pyran-3,4,5-triol]
